# Assay results reported in patent publication US10086030B2, “Use of composition in preparing health care products or medicines for preventing and treating allergic diseases” (JIANGZHONG PHARMACEUTICAL CO., LTD., priority 2012, dated 2018).
# Where “and” joins values, the source holds several entries; their conditions need not be identical. Equal values may be shown once.
# What was measured:
# [1] = system: allergic asthma in rats caused by OVA; assay: Allergic asthma in rats caused by OVA: latent period of asthma, serum IL-4 and IFN-γ, EOS content in lung tissues; format: in vivo, SD rats
# Source text: Rats (half thereof were male and the other half female) were randomly divided into two groups, i.e., a blank control group of 10 animals and a modeling group of 70 animals. After a successful modeling, the rats were randomly divided into the following groups: a model control group, a positive drug group (dexamethasone group), and groups on the low, medium, and high doses of Composition 3, with 10 animals in each group.
# On day 1, all animals except those in the blank control group were sensitized by intraperitoneal injection with 1 ml suspension containing 10 mg OVA, 200 mg Al(OH)3 dry powder, and 6×10^9 inactivated pertussis vaccines in physiological saline, and were sensitized once again on day 8.
# The daily intake of the test drug Composition 3 composite powder recommended for one person was 24 g crude drug/60 kg body weight. On the basis thereof, the calculated daily intake for a rat was: low dose group: 1.0 g crude drug/kg body weight; medium dose group: 2.0 g crude drug/kg body weight; high dose group: 6.0 g crude drug/kg body weight, which were 2.5, 5 and 15 times the daily intake for a human, respectively. […] The volume of intragastric administration was calculated as 1.0 ml/100 g body weight. The model control group was intragastrically given an equivalent volume of 0.9% physiological saline 30 minutes before challenging; and the positive drug group was given dexamethasone at a dose of 0.5 mg/kg 30 min before each challenging^[2]. The groups on the low, medium and high doses of Composition 3 were each intragastrically given the respective dose of the test drug 30 min before each challenging. […]
# A ZH-100 respiratory transducer was tied around the thoracic cage of each rat (the tension was adjusted to about 1 to 2 g so that the amplitude of the respiratory wave was 1 to 2 my). […] The acquisition system was turned on and a segment of normal respiratory wave was recorded. Then ultrasonic atomization with 1% OVA was applied for 20 min, and the respiratory waves of induced asthma in the rats were continuously recorded over 30 min after the atomization was initiated. Meanwhile, the period from the beginning of atomization to occurrence of symptoms (indicated by the first twitch) was visually observed and recorded as the latent period of asthma.
# 24 h after the final challenge, the rats were anaesthetized by intraperitoneal injection with 3% sodium pentobarbital (30 mg/kg). 5 to 10 ml blood was drawn, and serum IL-4 and IFN-γ levels were measured by ELISA.
# The left lung tissues were cut off and fixed in 4% polyformaldehyde for 4 to 5 h, then washed with water, dehydrated with an alcohol gradient, and immersed and embedded in paraffine. HE staining was performed with a successive sectioning process, inflammatory changes in the tissues were observed, and EOS infiltration was counted. For each section, 10 fields were randomly chosen under a microscope at high magnification (×400) by the same observer, and the numbers of EOS infiltration around bronchus and vessels were calculated and averaged as the representative value for this section.
# The daily intake of the test drug Composition 4 composite powder recommended for one person was 24 g crude drug/60 kg body weight. On the basis thereof, the calculated daily intake for a rat was: low dose group: 1.0 g crude drug/kg body weight; medium dose group: 2.0 g crude drug/kg body weight; high dose group: 6.0 g crude drug/kg body weight, which were 2.5, 5 and 15 times the daily intake for a human, respectively.
# [2] = system: allergic asthma in guinea pigs caused by a mixed gas of Ach and His; assay: Allergic asthma in guinea pigs caused by a mixed gas of Ach and His: latent period, total IgE in serum and BALF, EOS content in lung tissues; format: in vivo; settings: for latent period of asthma, Before dosing: before dosing (baseline)
# Procedure: 2.2 Effect on Allergic Asthma in Guinea Pigs Caused by a Mixed Gas of Ach and his
# On day 1, guinea pigs were placed in a closed 4 L glass bell jar, into which a 1:1 mixture solution of 2% Ach and 0.4% His was sprayed by ultrasonic atomization for 15 s. After completion of spraying, the latent period of asthma induced in the guinea pigs was recorded (i.e., the period from the end of the spraying to asthmatic onsets, extreme difficulty in breathing till twitching and falling down). Animals having a latent period of asthma longer than 120 s were excluded.
# Dual-antibody sandwich radioimmunoassay was employed.
# [3] = system: allergic asthma in rats caused by OVA; assay: Allergic asthma in rats caused by OVA: latent period of asthma, serum IL-4 and IFN-γ, EOS content in lung tissues; format: in vivo, SD rats; settings: dexamethasone 0.5 mg/kg; for latent period of asthma, Before dosing: before dosing (baseline)
# [4] = baseline, positive control group (dexamethasone 0.5 mg/kg)
# [5] = positive control dexamethasone 0.5 mg/kg, 21 days
# [6] = dexamethasone 0.5 mg/kg, Composition 6 study
# [7] = dexamethasone 0.5 mg/kg, Composition 7 study
# [8] = dexamethasone 0.5 mg/kg, Composition 5 study
smiles,measurement,setting,value
C[C@@H]1C[C@H]2[C@@H]3CCC4=CC(=O)C=C[C@]4(C)[C@@]3(F)[C@@H](O)C[C@]2(C)[C@@]1(O)C(=O)CO [dexamethasone],"latent period of asthma induced, Before dosing",[1]; [4],75.84 ± 12.36 and 74.66 ± 11.09 and 74.64 ± 11.03
same,"latent period of asthma induced, After dosing","[1]; positive control dexamethasone 0.5 mg/kg 30 min before each challenge, 21 days",162.61 ± 17.88^ΔΔ and 159.77 ± 20.28^ΔΔ and 160.21 ± 20.32^ΔΔ
same,EOS content in lung tissues,[1]; [5],27.51 ± 4.31^ΔΔ cells/HP and 28.39 ± 4.26^ΔΔ cells/HP and 28.42 ± 4.24^ΔΔ cells/HP
same,serum IFN-γ,[1]; [5],20.51 ± 4.65^ΔΔ pg/ml and 20.26 ± 4.86^ΔΔ pg/ml and 20.27 ± 4.88^ΔΔ pg/ml
same,serum IL-4,[1]; [5],12.88 ± 4.13^ΔΔ pg/ml and 13.51 ± 4.31^ΔΔ pg/ml and 13.50 ± 4.28^ΔΔ pg/ml
same,total IgE in BALF,"[2]; BALF, positive control group, 0.5 mg/kg",3.62 ± 0.62^ΔΔ U/L
same,"latent period of asthma, After dosing","[2]; after dosing, dexamethasone 0.5 mg/kg, Composition 6 study",155.78 ± 16.29^ΔΔ
same,"latent period of asthma, After dosing","[2]; after dosing, dexamethasone 0.5 mg/kg, Composition 7 study",150.46 ± 16.80^ΔΔ
same,"latent period of asthma induced in guinea pigs, after dosing","[2]; after dosing, positive control group, 0.5 mg/kg",156.77 ± 16.18^ΔΔ
same,"latent period of asthma induced, Before dosing",[2]; [4],77.32 ± 13.95 and 75.63 ± 9.09 and 75.65 ± 9.10
same,"latent period of asthma induced in guinea pigs, before dosing","[2]; before dosing (after modeling), positive control group, 0.5 mg/kg",74.63 ± 9.04
same,"latent period of asthma, Before dosing",[2]; [6],75.62 ± 9.10
same,"latent period of asthma, Before dosing",[2]; [7],70.68 ± 9.65
same,EOS content in lung tissues,[2]; [8],30.77 ± 7.21^ΔΔ cells/HP
same,total IgE in BALF,[2]; [8],3.70 ± 0.73^ΔΔ U/L
same,total IgE in serum,[2]; [8],3.74 ± 1.32^ΔΔ U/L
same,EOS content in lung tissues,[2]; [6],30.80 ± 7.23^ΔΔ cells/HP
same,total IgE in BALF,[2]; [6],3.71 ± 0.70^ΔΔ U/L
same,total IgE in serum,[2]; [6],3.74 ± 1.30^ΔΔ U/L
same,EOS content in lung tissues,[2]; [7],31.70 ± 9.52^ΔΔ cells/HP
same,total IgE in BALF,[2]; [7],3.50 ± 0.78^ΔΔ U/L
same,total IgE in serum,[2]; [7],3.70 ± 1.26^ΔΔ U/L
same,EOS content in guinea pigs' lung tissues,"[2]; lung tissues, positive control group, 0.5 mg/kg",30.69 ± 7.35^ΔΔ cells/HP
same,EOS content in lung tissues,[2]; [5],31.78 ± 7.55^ΔΔ cells/HP and 30.79 ± 7.25^ΔΔ cells/HP
same,"latent period of asthma induced, After dosing",[2]; [5],160.92 ± 19.72^ΔΔ and 155.77 ± 16.28^ΔΔ and 155.78 ± 16.24^ΔΔ
same,total IgE in BALF,[2]; [5],3.49 ± 0.82^ΔΔ U/L and 3.72 ± 0.72^ΔΔ U/L
same,total IgE in serum,[2]; [5],3.58 ± 1.19^ΔΔ U/L and 3.75 ± 1.31^ΔΔ U/L
same,total IgE in serum,"[2]; serum, positive control group, 0.5 mg/kg",3.65 ± 1.21^ΔΔ U/L
same,"latent period of asthma, After dosing",[3]; Composition 6 study,159.78 ± 20.27^ΔΔ
same,"latent period of asthma, After dosing",[3]; Composition 7 study,156.30 ± 21.44^ΔΔ
same,"latent period of asthma, After dosing",[3]; Composition 8 study,159.87 ± 20.38^ΔΔ
same,"latent period of asthma, Before dosing",[3]; Composition 6 study,74.67 ± 11.10
same,"latent period of asthma, Before dosing",[3]; Composition 7 study,72.88 ± 10.96
same,"latent period of asthma, Before dosing",[3]; Composition 8 study,73.66 ± 11.19
same,EOS content in lung tissues,[3]; Composition 6 study,28.40 ± 4.25^ΔΔ cells/HP
same,IFN-γ (serum),[3]; Composition 6 study,20.27 ± 4.89^ΔΔ pg/ml
same,IL-4 (serum),[3]; Composition 6 study,13.50 ± 4.32^ΔΔ pg/ml
same,EOS content in lung tissues,[3]; Composition 7 study,35.64 ± 6.18^ΔΔ cells/HP
same,IFN-γ (serum),[3]; Composition 7 study,19.29 ± 4.04^ΔΔ pg/ml
same,IL-4 (serum),[3]; Composition 7 study,12.90 ± 4.67^ΔΔ pg/ml
same,EOS content in lung tissues,[3]; Composition 8 study,28.39 ± 4.26^ΔΔ cells/HP
same,IFN-γ (serum),[3]; Composition 8 study,20.16 ± 4.96^ΔΔ pg/ml
same,IL-4 (serum),[3]; Composition 8 study,13.41 ± 4.21^ΔΔ pg/ml
